US20210369698A1 (Attillaps Holdings, priority 2019, published 2021)

Tested on: Demodex mites
Details: 10% chloroquine in water; in vitro; water control 44.8 hours
Description: In vitro efficacy and mite lifetimes: Relative efficacy of various formulations are evaluated with a demodex survival time experiments. FIG. 3 tabulates demodex survival time, expressed in terms of LT50 (time at which 50% of demodex mites are killed) and/or average minutes to death for various active agents.

CCN(CC)CCCC(C)Nc1ccnc2cc(Cl)ccc12 (stereo not shown) [chloroquine, Chloroquine]
LT50 (time at which 50% of demodex mites are killed): 31.6 h
